# Laboratory results taken from publication PMC10058583, “Development of Novel Fluorinated Polyphenols as Selective Inhibitors of DYRK1A/B Kinase for Treatment of Neuroinflammatory Diseases including Parkinson’s Disease” (Pharmaceuticals, 2023).
# How the values were obtained:
# [1] = target: T1, 6xHis-tagged rat-truncated DYRK1A (residues 1-497) (Rattus norvegicus, UniProt Q63470); assay: ELISA-based non-radioactive kinase assay, DYRK1A; type: biochemical; conditions: read-out: DYRK1A IC50
# T1 construct: 6xHis-tagged rat-truncated DYRK1A (residues 1-497); 6xHis; made in house
# [2] = tested on: LPS-induced inflammation in C57BL/6J mice; assay: LPS-induced inflammation model; type: in vivo, mouse
# Description: Neuroinflammation is an important factor contributing to cognitive impairment and neurodegenerative diseases such as PD, and the administration of LPS is frequently used to study neuroinflammation-associated diseases in mice.
# Each group consisted of six male mice. […] Animals were pretreated for 3 days with the drug of choice; then, treatment with LPS commenced on day 0, and on the 5th day of LPS treatment, the drug was administered half an hour before LPS injection. One hour after LPS treatment, the animals were anesthetized with a mixture of ketamine, xylazine 2%, atropine, and saline (4:2.5:1:2.5). The body temperature of mice under anesthesia was maintained by applying a heating blanket and monitored using a rectal thermometer. After anesthesia, the animals underwent cardiac perfusion with ice-cold saline for three minutes (3 mL/minute via peristaltic pump) via the left ventricle. The right atrium was cut as an outflow route. The right hemisphere was post-fixed overnight in 4% PFA in PBS at 4 °C and stored in 1xPBS containing 0.1% (v/w) sodium azide at 4 °C. The left hemisphere, hippocampus, cortex, midbrain, and brainstem were microdissected, immersed in liquid nitrogen in separate tubes (with one-fifth of the rest of the brain tissue), and stored in microfuge tubes at −80°. TNFα (in both plasma and the hippocampus) was analyzed with ELISA, and the p-tau (AT-8 antibody) level was recorded in the hippocampus and cortex with WB.
# [3] = tested on: MPTP-treated C57BL/6J mice; assay: MPTP model for Parkinson's disease; type: in vivo, mouse
# Description: We tested the behavioral effect of 1c in the MPTP model for PD using both IN and PO delivery (both 25 mg/kg, BID). This is a common neurodegenerative disorder model characterized by a progressive loss of dopaminergic (DA) neurons in the […]. Several studies have shown that oxidative stress, neuroinflammation, and microglial activation play a pivotal role, at least in the progression of PD [35].
# MPTP dissolved in saline was administered via intraperitoneal injections once daily at a dosage of 30 mg/kg/day for 5 consecutive days. The control group was administered intraperitoneal injections of saline.
# The behavioral tests were performed at initiation as the baseline and 3, 6, and 9 days following the last MPTP injection. Pole test: the test consisted of a gauze-taped pole (45 cm high, 1 cm in diameter) with a small cork ball at the top. Mice were placed with their head facing upwards immediately below the ball. Two times were recorded: the time it took for the mouse to turn completely downward (T-turn) and the time it took to descend to the floor (T-total), with a cutoff limit of 60 sec. The test consisted of two trials separated by 10 min intertrial intervals, and the average time was calculated. Mice were pretrained for 3 days before MPTP injection. The rotarod test was used to assess the motor coordination and balance of animals. On the test day, the mice were habituated for 30 min in the test room before testing. The drum was slowly accelerated to a speed of 4–40 rpm for a maximum of 300 s. The latency to fall off the rotarod within this time period was recorded. The test consisted of three trials separated by 10 min intertrial intervals. The mean latency to fall off the rotarod was recorded and used for analysis. Mice were trained for 3 days before MPTP injection.
# Tissue Collection and IHC Analysis: within 2 h following the last dose, the blood of animals was collected via cardiac puncture under isoflurane-induced anesthesia. After blood collection, animals were transcardially perfused with normal saline, followed by buffered formalin fixative. Brains were removed, post-fixed, and embedded in paraffin for subsequent IHC analysis of […] (TH)-positive cells in the substantia nigra (SN).
# [4] = target: T2, human DYRK1B isoform p65 (GST fusion) (Homo sapiens, UniProt Q9Y463); assay: ELISA-based non-radioactive kinase assay, DYRK1B; type: biochemical; conditions: 30 ng GST-DYRK1B, 60 min reaction
# T2 construct: made in house
# Description: DYRK1B was prepared from human DYRK1B isoform p65 as glutathione S-transferase fusion protein, and DYRK2 was prepared from human DYRK2 isoform 1 as 6xHis-tagged protein, as previously described.
# For DYRK2, the reactions were performed exactly as described for DYRK1A. For DYRK1B, the assays were similarly conducted but with 30 ng GST-DYRK1B and a kinase reaction time of 60 min.
# [5] = PO 30 mg/kg BID, from 3 days before LPS (i.p. 750 µg/kg, 5 days)
# [6] = IN or PO 25 mg/kg BID, no difference between the two routes
# T2 sequence (Q9Y463 1-589 isoform Q9Y463-2): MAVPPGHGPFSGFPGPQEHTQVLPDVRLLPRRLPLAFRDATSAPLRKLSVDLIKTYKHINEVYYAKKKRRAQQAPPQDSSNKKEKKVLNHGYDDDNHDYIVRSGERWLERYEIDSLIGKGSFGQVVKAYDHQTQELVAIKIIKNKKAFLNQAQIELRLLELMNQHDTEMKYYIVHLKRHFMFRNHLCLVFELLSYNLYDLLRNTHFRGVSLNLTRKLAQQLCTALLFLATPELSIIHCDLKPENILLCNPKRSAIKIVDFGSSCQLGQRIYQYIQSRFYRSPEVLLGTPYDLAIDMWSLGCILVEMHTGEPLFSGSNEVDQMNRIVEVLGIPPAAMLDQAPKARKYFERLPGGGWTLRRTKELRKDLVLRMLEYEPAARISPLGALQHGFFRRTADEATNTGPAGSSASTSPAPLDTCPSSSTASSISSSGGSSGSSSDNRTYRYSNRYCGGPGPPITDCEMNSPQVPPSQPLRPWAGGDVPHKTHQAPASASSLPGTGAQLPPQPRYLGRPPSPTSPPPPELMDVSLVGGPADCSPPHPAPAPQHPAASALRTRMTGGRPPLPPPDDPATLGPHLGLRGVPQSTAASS
smiles,measurement,setting,value
COc1cc(C(=O)O[C@@H]2Cc3c(O)cc(O)cc3O[C@H]2c2cc(O)c(O)c(O)c2)c(F)c(O)c1O [Compound 1c],IC50,[1],73 nM
same,inhibition of tau phosphorylation,"[2]; IN 30 mg/kg BID, LPS i.p. 750 µg/kg",lack of efficacy
same,tau phosphorylation in the hippocampus,"[2]; PO 30 mg/kg BID, LPS i.p. 750 µg/kg",reduced tau phosphorylation
same,TNFα accumulation in plasma,[2]; [5],significantly (p < 0.05) decreasing
same,TNFα accumulation in the brain,[2]; [5],significantly (p < 0.05) decreasing
same,tyrosine-hydroxylase-positive cells in the substantia nigra pars compacta,[3]; IN 25 mg/kg BID,failed to show any histological difference
same,"movement behavior, pole test",[3]; [6],completely restored
same,"movement behavior, rotarod test",[3]; [6],completely restored
same,tyrosine-hydroxylase-positive cells in the substantia nigra pars compacta,[3]; PO 25 mg/kg BID,protected from MPTP toxicity
same,IC50,[4],79 nM
